Measured values published in patent publication US8877778B2, “Benzofurane compounds” (Hoffmann-La Roche Inc., priority 2010, dated 2014).

Key:
human D3 receptor = human D3 receptor (Homo sapiens (Human), UniProt P35462); experiment: Radioligand binding ([3H]-spiperone) to cloned receptors expressed in HEK-293 EBNA cells; conditions: HEK293 EBNA cell membranes expressing human D3
Experimental: (§1) HEK293 EBNA cells were transiently transfected with expression plasmids encoding for the human D2 or D3 or for the human 5-HT2A receptor, respectively. The cells were harvested 48 h post-transfection, washed three times with cold PBS and stored at −80° C. prior to use. The pellet was suspended in cold 50 mM Tris-HCl buffer comprising 10 mM EDTA (pH 7.4) and was homogenized with a Polytron (Kinematica AG, Basel, Switzerland) for 20-30 sec at 12.000 rpm. After centrifugation at 48.000×g for 30 min at 4° C., the pellet was resuspended in cold 10 mM Tris-HCl buffer comprising 0.1 mM EDTA (pH 7.4), homogenized, and centrifuged as above. This pellet was further resuspended in a smaller volume of ice cold 10 mM Tris-HCl buffer comprising 0.1 mM EDTA (pH 7.4) and homogenized with a Polytron for 20-30 sec at 12.000 rpm. The protein content of this homogenate was determined with the Bio-Rad (Bradford) Protein Assay (Biorad Laboratories GmbH, München, Germany) according to the instructions of the manufacturer using gamma globulin as the standard. This homogenate was stored at −80° C. in aliquots and thawed immediately prior to use.
(§2) Aliquots of membrane preparations were thawed at RT, resupended in assay buffer (D2, D3: 50 mM Tris-HCl, 120 mM NaCl, 5 mM MgCl2, 1 mM EDTA, 5 mM KCl, 1.5 mM CaCl2, pH=7.4; 5-HT2A: 50 mM Tris-HCl, 10 mM MgCl2, 1 mM EGTA, pH=7.4), homogenized with a Polytron for 20-30 sec at 12.000 rpm and adjusted to a final concentration of approximately 7.5 μg protein/well (D2, D3) and 15 μg protein/well (5-HT2A), respectively.
(§3) The binding affinity (Ki) of the compounds was determined using radioligand binding. Membranes were incubated in a total volume of 200 μl with a fixed concentration of radioligand (final concentration approximately 0.7 nM [^3H]-spiperone for D2, 0.5 nM [^3H]-spiperone for D3, and 1.1 nM [^3H]-ketanserin for 5-HT2A) and ten concentrations of test compound in ranging between 10 μM-0.1 nM for 1 h at RT. At the end of the incubation, the reaction mixtures were filtered on to unifilter 96-well white microplates with bonded GF/C filters (Packard BioScience, Zürich, Switzerland; preincubated for 1 h in 0.1% polyethylenimine (PEI) in assay buffer) with a Filtermate 196 harvester (Packard BioScience) and washed 3 times with cold assay buffer. The nonspecific binding was determined with equally composed reaction mixtures in the presence of 10 μM unlabelled spiperone. Per well 45 μl of Microscint 40 (Perkin Elmer, Schwerzenbach, Switzerland) was added, plates for sealed, shaken for 20 min and counted for 3 min on a Topcount Microplate Scintillation Counter (Can berra Packard SA, Zürich, Switzerland) with quenching correction.
(§4) The CPM value for each duplicate of a concentration of competing compound was averaged (y1), then the % specific binding was calculated according to the equation (((y1−non-specific)/(total binding−non-specific))×100). Graphs were plotted with the % specific binding using XLfit, a curve fitting program that iteratively plots the data using Levenberg-Marquardt algorithm. The single site competition analysis equation used was y=A+((B−A)/(1+((x/C)D))), where y is the % specific binding, A is the minimum y, B is the maximum y, C is the IC50, x is the log 10 of the concentration of the competing compound and D is the slope of the curve (the Hill Coefficient). […] The affinity constant (Ki) was calculated using the Cheng-Prusoff equation Ki=(IC50/1+([L]/Kd), where [L] is the concentration of radioligand and Kd is the dissociation constant of the radioligand at the receptor as determined by the saturation isotherm.

human D2 receptor = human D2 receptor (Homo sapiens (Human), UniProt P14416); experiment: as above; conditions: HEK293 EBNA cell membranes expressing human D2
Sequence of human D2 receptor (P14416 whole entry): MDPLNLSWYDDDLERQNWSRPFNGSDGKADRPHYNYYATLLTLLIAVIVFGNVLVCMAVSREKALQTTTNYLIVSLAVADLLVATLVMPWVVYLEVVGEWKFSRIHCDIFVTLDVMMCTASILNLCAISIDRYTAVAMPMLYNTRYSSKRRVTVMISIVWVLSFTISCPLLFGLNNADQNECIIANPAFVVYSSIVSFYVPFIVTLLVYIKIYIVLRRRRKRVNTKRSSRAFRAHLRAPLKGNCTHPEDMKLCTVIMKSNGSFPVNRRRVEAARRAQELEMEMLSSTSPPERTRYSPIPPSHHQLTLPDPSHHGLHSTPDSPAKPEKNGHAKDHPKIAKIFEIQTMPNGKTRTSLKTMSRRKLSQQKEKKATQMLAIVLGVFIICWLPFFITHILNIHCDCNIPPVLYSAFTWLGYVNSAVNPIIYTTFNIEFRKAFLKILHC
Experimental: as §1, §2, §3, §4

human 5-HT2A receptor = human 5-HT2A receptor (Homo sapiens (Human), UniProt P28223); experiment: Radioligand binding ([3H]-ketanserin) to cloned receptors expressed in HEK-293 EBNA cells; conditions: HEK293 EBNA cell membranes expressing human 5-HT2A
Sequence of human 5-HT2A receptor (P28223 whole entry): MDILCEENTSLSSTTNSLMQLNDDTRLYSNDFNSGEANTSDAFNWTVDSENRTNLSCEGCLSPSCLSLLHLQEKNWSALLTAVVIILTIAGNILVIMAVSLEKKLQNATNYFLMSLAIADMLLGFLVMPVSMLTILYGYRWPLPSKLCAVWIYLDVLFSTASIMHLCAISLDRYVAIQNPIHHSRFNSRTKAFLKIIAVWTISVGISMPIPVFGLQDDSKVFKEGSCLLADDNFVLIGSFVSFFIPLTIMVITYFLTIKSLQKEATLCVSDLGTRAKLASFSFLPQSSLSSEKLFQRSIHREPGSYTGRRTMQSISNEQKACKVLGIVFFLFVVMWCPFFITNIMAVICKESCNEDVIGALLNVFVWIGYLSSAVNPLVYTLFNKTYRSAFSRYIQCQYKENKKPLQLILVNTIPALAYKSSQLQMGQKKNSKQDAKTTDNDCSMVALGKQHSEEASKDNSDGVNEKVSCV
Experimental: as §1, §2, §3, §4

Sequence of human D3 receptor (P35462 whole entry): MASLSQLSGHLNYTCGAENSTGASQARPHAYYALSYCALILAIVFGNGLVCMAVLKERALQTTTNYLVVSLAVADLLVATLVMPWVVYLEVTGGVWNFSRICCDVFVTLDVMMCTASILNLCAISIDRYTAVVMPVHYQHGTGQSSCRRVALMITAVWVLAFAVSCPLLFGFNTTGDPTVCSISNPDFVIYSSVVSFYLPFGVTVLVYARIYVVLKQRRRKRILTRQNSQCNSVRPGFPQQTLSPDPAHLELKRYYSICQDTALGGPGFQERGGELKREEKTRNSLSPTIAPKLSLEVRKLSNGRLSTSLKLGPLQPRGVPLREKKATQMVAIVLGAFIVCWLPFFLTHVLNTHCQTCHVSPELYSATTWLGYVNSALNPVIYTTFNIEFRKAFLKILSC

Structure (SMILES)	Ki (human D3 receptor) [µM]	Ki (human D2 receptor) [µM]	Ki (human 5-HT2A receptor) [µM]	melting point [°C]
O=C(CC1CCOCC1)N[C@H]1CC[C@H](CCN2CCC(c3cccc4c3CCO4)CC2)CC1 [Example 8, trans-N-(4-{2-[4-(2,3-Dihydro-benzofuran-4-yl)-piperidin-1-yl]-ethyl}-cyclohexyl)-2-(tetrahydro-pyran-4-yl)-acetamide]	0.0104	0.65	0.0386	191
CCC(=O)N[C@H]1CC[C@H](CCN2CCC(c3cccc4occc34)CC2)CC1 [Example 9, trans-N-{4-[2-(4-Benzofuran-4-yl-piperidin-1-yl)-ethyl]-cyclohexyl}-propionamide]	0.0022	0.0919	0.0056	170
COCC(=O)N[C@H]1CC[C@H](CCN2CCC(c3cccc4occc34)CC2)CC1 [Example 10, trans-N-{4-[2-(4-Benzofuran-4-yl-piperidin-1-yl)-ethyl]-cyclohexyl}-2-methoxy-acetamide]	0.0105	0.256	0.0042	124
CS(=O)(=O)CC(=O)N[C@H]1CC[C@H](CCN2CCC(c3cccc4occc34)CC2)CC1 [Example 11, trans-N-{4-[2-(4-Benzofuran-4-yl-piperidin-1-yl)-ethyl]-cyclohexyl}-2-methanesulfonyl-acetamide]	0.0023	0.154	0.0053	201
CCC(=O)N[C@H]1CC[C@H](CCN2CCC(c3cccc4c3CCO4)CC2)CC1 [Example 13, trans-N-(4-{2-[4-(2,3-Dihydro-benzofuran-4-yl)-piperidin-1-yl]-ethyl}-cyclohexyl)-propionamide]	0.0046	0.346	0.0343	192
COCC(=O)N[C@H]1CC[C@H](CCN2CCC(c3cccc4c3CCO4)CC2)CC1 [Example 14, trans-N-(4-{2-[4-(2,3-Dihydro-benzofuran-4-yl)-piperidin-1-yl]-ethyl}-cyclohexyl)-2-methoxy-acetamide]	0.0227	0.671	0.0277	156
CS(=O)(=O)CC(=O)N[C@H]1CC[C@H](CCN2CCC(c3cccc4c3CCO4)CC2)CC1 [Example 15, trans-N-(4-{2-[4-(2,3-Dihydro-benzofuran-4-yl)-piperidin-1-yl]-ethyl}-cyclohexyl)-2-methanesulfonyl-acetamide]	0.0049	0.419	0.0359	211
O=C(N[C@H]1CC[C@H](CCN2CCC(c3cccc4c3CCO4)CC2)CC1)c1ccccc1 [Example 17, trans-N-(4-{2-[4-(2,3-Dihydro-benzofuran-4-yl)-piperidin-1-yl]-ethyl}-cyclohexyl)-benzamide]	0.0042	0.319	0.0114	220
O=C(CC(F)(F)F)N[C@H]1CC[C@H](CCN2CCC(c3cccc4c3CCO4)CC2)CC1 [Example 18, trans-N-(4-{2-[4-(2,3-Dihydro-benzofuran-4-yl)-piperidin-1-yl]ethyl}-cyclohexyl)-3,3,3-trifluoro-propionamide]	0.0044	0.345	0.0342	197
Cc1cc(CC(=O)N[C@H]2CC[C@H](CCN3CCC(c4cccc5c4CCO5)CC3)CC2)on1 [Example 19, trans-N-(4-{2-[4-(2,3-Dihydro-benzofuran-4-yl)-piperidin-1-yl]-ethyl}-cyclohexyl)-2-(3-methyl-isoxazol-5-yl)-acetamide]	0.002	0.54	0.0329	188
O=C(CO)N[C@H]1CC[C@H](CCN2CCC(c3cccc4c3CCO4)CC2)CC1 [Example 20, trans-N-(4-{2-[4-(2,3-Dihydro-benzofuran-4-yl)-piperidin-1-yl]-ethyl}-cyclohexyl)-2-hydroxy-acetamide]	0.01	0.571	0.0253	154.5
CC(C)C(=O)N[C@H]1CC[C@H](CCN2CCC(c3cccc4c3CCO4)CC2)CC1 [Example 23, trans-N-(4-{2-[4-(2,3-Dihydro-benzofuran-4-yl)-piperidin-1-yl]-ethyl}-cyclohexyl)-isobutyramide]	0.008	0.285	0.0199	212
CC(C)CC(=O)N[C@H]1CC[C@H](CCN2CCC(c3cccc4c3CCO4)CC2)CC1 [Example 24, trans-N-(4-{2-[4-(2,3-Dihydro-benzofuran-4-yl)-piperidin-1-yl]-ethyl}-cyclohexyl)-3-methyl-butyramide]	0.0052	0.213	0.0311	197
O=C(N[C@H]1CC[C@H](CCN2CCC(c3cccc4c3CCO4)CC2)CC1)C1CCC1 [Example 26, Cyclobutanecarboxylic acid trans-(4-{2-[4-(2,3-dihydro-benzofuran-4-yl)-piperidin-1-yl]-ethyl}-cyclohexyl)-amide]	0.0084	0.145	0.0204	197
O=C(CCO)N[C@H]1CC[C@H](CCN2CCC(c3cccc4c3CCO4)CC2)CC1 [Example 27, trans-N-(4-{2-[4-(2,3-Dihydro-benzofuran-4-yl)-piperidin-1-yl]-ethyl}-cyclohexyl)-3-hydroxy-propionamide]	0.0065	0.344	0.0618	158
O=C(N[C@H]1CC[C@H](CCN2CCC(c3cccc4c3CCO4)CC2)CC1)C1(O)CC1 [Example 28, 1-Hydroxy-cyclopropanecarboxylic acid trans-(4-{2-[4-(2,3-dihydro-benzofuran-4-yl)-piperidin-1-yl]-ethyl}-cyclohexyl)-amide]	0.0084	0.299	0.0093	164
O=C(N[C@H]1CC[C@H](CCN2CCC(c3cccc4c3CCO4)CC2)CC1)C1CC1 [Example 29, Cyclopropanecarboxylic acid trans-(4-{2-[4-(2,3-dihydro-benzofuran-4-yl)-piperidin-1-yl]-ethyl}-cyclohexyl)-amide]	0.0089	0.151	0.0236	208
O=C(CC1CC1)N[C@H]1CC[C@H](CCN2CCC(c3cccc4c3CCO4)CC2)CC1 [Example 30, trans-2-Cyclopropyl-N-(4-{2-[4-(2,3-dihydro-benzofuran-4-yl)-piperidin-1-yl]-ethyl}-cyclohexyl)-acetamide]	0.0029	0.268	0.0287	189
O=C(N[C@H]1CC[C@H](CCN2CCC(c3cccc4c3CCO4)CC2)CC1)c1ccc(N2CCOCC2)cc1 [Example 33, trans-N-(4-{2-[4-(2,3-Dihydro-benzofuran-4-yl)-piperidin-1-yl]-ethyl}-cyclohexyl)-4-morpholin-4-yl-benzamide]	0.0105	0.128	0.0176	247
O=C(N[C@H]1CC[C@H](CCN2CCC(c3cccc4c3CCO4)CC2)CC1)c1ccc(Cl)cc1 [Example 34, trans-4-Chloro-N-(4-{2-[4-(2,3-dihydro-benzofuran-4-yl)-piperidin-1-yl]-ethyl}-cyclohexyl)-benzamide]	0.0049	0.0719	0.0181	224
